Assay results reported in US20050112573A1, “Method of detecting toxic substance” (priority 2001, published 2005).

System: yeast genes (level of expressed mRNA)
Test: DNA chip analysis of expressed mRNA of yeast genes after 2 h culture with a toxic chemical substance
Assay type: cell-based, Saccharomyces cerevisiae S288C
Settings: for The level of expressed mRNA in the presence of chemical substance/ (ratio to absence of chemical substance): stress protein genes, DNA chip
Protocol: Yeast (Saccharomyces cerevtisiae S288C (α SUC2mal mel gap2 CUP1)) were cultured at 25° C. on YPD medium (yeast extract 1%, polypepton 2%, glucose 2%). One of toxic chemical substances was added to the cell at logarithmic growth phase, and the cell was further cultured for two hours. Cell was cultured without any chemical substance in the same condition, and was used as control. Concentrations of the chemical substances were defined to inhibit the growth of the yeast but not lead to death.
After the completion of cultivation, the culture was centrifuged to collect the cells. To the cells, sodium acetate buffer (50 mM sodium acetate, 10 mM EDTA, 1% SDS) was added, and the mixture was shaken at 65° C. for five minutes, followed by returning to room temperature, and obtaining the supernatant, which procedure was repeated two times. To the supernatant, ½ amount of a solution of phenol/chloroform was added, and the mixture was centrifuged to give a supernatant, which was added with an equal amount of chloroform, and the mixture was centrifuged to give a supernatant. To the supernatant, an equal amount of isopropanol containing 0.3 M sodium acetate was added, and the mixture was allowed to stand at room temperature for 30 minutes, after which the mixture was centrifuged to give a sediment of the whole RNAs. Seventy % ethanol was added to the sediment, and the mixture was again centrifuged to give a sediment, which was then dried and dissolved in water. mRNA was isolated from the whole RNAs as followings. In view of the fact that a poly A chain is attached to the 3′ terminus of mRNA, a polynucleotide having a poly T structure which was immobilized on the surface of latex beads was used to trap the mRNA, and then the mRNA was washed and eluted with spine column (Oligotex-dT30<Super>mRNA Purification Kit, Takara). Reverse transcription of the mRNA was conducted with a reverse transcriptase (Super Script II Reverse Transcriptase; catalogue No. 18064-014, GibcoBRL) using fluorescence-labeled nucleotides to give cDNAs that were introduced with Cy3-dUTP or Cy5-dUTP during the reverse transcription.
The labeled cDNAs were dissolved in TE buffer (10 mM Tris-HCl/1 mM EDTA, pH8.0), and the solution was dropped on the DNA chip containing the whole genes of yeast (DNA Chip Research Inc. Japan) so that the cDNAs were hybridized on the DNA chip at 65° C. for over 12 hours. The fluoresces intensity of the DNA chip was read with a scanner, and the ratio relative to the fluorescence intensity resulting from the absence of chemical substance was estimated as the following, which is shown in Tables 1 to 9: [formula]
In the Tables, “Intensity” indicated in the rightmost column is a value of the level of expressed mRNA of each gene in control cells as divided by the average level of the expressions of the whole genes.

C[S+](C)[O-] [(15), dimethylsulfoxide]
The level of expressed mRNA in the presence of chemical substance/ in its absence, gene YDL078C (yeast gene YDL078C, ratio of DNA chip fluorescence intensity to that without chemical substance): 0.5
The level of expressed mRNA in the presence of chemical substance/ (in its absence), gene YDL215C (yeast gene YDL215C, ratio of DNA chip fluorescence intensity to that without chemical substance): 1.1
The level of expressed mRNA in the presence of chemical substance/The level of expressed mRNA in the absence of chemical substance (yeast gene YDL238C): 1.3
The level of expressed mRNA in the presence of chemical substance/The level of expressed mRNA in the absence of chemical substance (yeast gene YDR055W): 5.7
The level of expressed mRNA in the presence of chemical substance/ (in its absence), gene YDR073W (yeast gene YDR073W, ratio of DNA chip fluorescence intensity to that without chemical substance): 0.8
The level of expressed mRNA in the presence of chemical substance/ in its absence, gene YDR079W (yeast gene YDR079W, energy system protein genes, 2 h culture with the chemical, ratio to control without chemical): 0.6
The level of expressed mRNA in the presence of chemical substance/ (ratio to absence), gene YDR079W (yeast gene YDR079W, mitochondria-located protein genes, 2 h culture with chemical): 0.6
The level of expressed mRNA in the presence of chemical substance/The level of expressed mRNA in the absence of chemical substance (yeast gene YDR084C): 3.9
The level of expressed mRNA in the presence of chemical substance/The level of expressed mRNA in the absence of chemical substance (yeast gene YDR085C): 3.1
The level of expressed mRNA in the presence of chemical substance/The level of expressed mRNA in the absence of chemical substance (yeast gene YDR104C): 1.4
The level of expressed mRNA in the presence of chemical substance/The level of expressed mRNA in the absence of chemical substance (yeast gene YDR115W): 0.8
The level of expressed mRNA in the presence of chemical substance/The level of expressed mRNA in the absence of chemical substance (yeast gene YDR259C): 2.9
The level of expressed mRNA in the presence of chemical substance/ (in its absence), gene YDR297W (yeast gene YDR297W, ratio of DNA chip fluorescence intensity to that without chemical substance): 1.4
The level of expressed mRNA in the presence of chemical substance/The level of expressed mRNA in the absence of chemical substance (yeast gene YDR315C): 1.5
The level of expressed mRNA in the presence of chemical substance/The level of expressed mRNA in the absence of chemical substance (yeast gene YDR358W): 0.9
The level of expressed mRNA in the presence of chemical substance/ (ratio to absence), gene YDR377W (yeast gene YDR377W, mitochondria-located protein genes, 2 h culture with chemical): 0.6
The level of expressed mRNA in the presence of chemical substance/ (in its absence), gene YDR387C (yeast gene YDR387C, ratio of DNA chip fluorescence intensity to that without chemical substance): 1.4
The level of expressed mRNA in the presence of chemical substance/The level of expressed mRNA in the absence of chemical substance (yeast gene YDR388W): 2.6
The level of expressed mRNA in the presence of chemical substance/The level of expressed mRNA in the absence of chemical substance (yeast gene YDR481C): 3.5
The level of expressed mRNA in the presence of chemical substance/The level of expressed mRNA in the absence of chemical substance (yeast gene YDR510W): 2.2
The level of expressed mRNA in the presence of chemical substance/ (ratio to absence of chemical substance) (yeast gene YEL039C): 0.4
The level of expressed mRNA in the presence of chemical substance/The level of expressed mRNA in the absence of chemical substance (yeast gene YEL066W): 1.0
The level of expressed mRNA in the presence of chemical substance/ (in its absence), gene YER015W (yeast gene YER015W, ratio of DNA chip fluorescence intensity to that without chemical substance): 0.8
The level of expressed mRNA in the presence of chemical substance/The level of expressed mRNA in the absence of chemical substance (yeast gene YER039C): 1.2
The level of expressed mRNA in the presence of chemical substance/ (ratio to absence of chemical substance) (yeast gene YER057C): 1.7
The level of expressed mRNA in the presence of chemical substance/The level of expressed mRNA in the absence of chemical substance (yeast gene YER107C): 0.7
The level of expressed mRNA in the presence of chemical substance/The level of expressed mRNA in the absence of chemical substance (yeast gene YER130C): 1.1
The level of expressed mRNA in the presence of chemical substance/The level of expressed mRNA in the absence of chemical substance (yeast gene YFL028C): 0.8
The level of expressed mRNA in the presence of chemical substance/The level of expressed mRNA in the absence of chemical substance (yeast gene YFL043C): 1.1
The level of expressed mRNA in the presence of chemical substance/ (in its absence), gene YGL035C (yeast gene YGL035C, ratio of DNA chip fluorescence intensity to that without chemical substance): 1.0
The level of expressed mRNA in the presence of chemical substance/ (in its absence), gene YGL115W (yeast gene YGL115W, ratio of DNA chip fluorescence intensity to that without chemical substance): 0.7
The level of expressed mRNA in the presence of chemical substance/ (ratio to absence of chemical substance) (yeast gene YGL115W): 0.7
The level of expressed mRNA in the presence of chemical substance/The level of expressed mRNA in the absence of chemical substance (yeast gene YGL158W): 2.3
The level of expressed mRNA in the presence of chemical substance/ (ratio to absence), gene YGL187C (yeast gene YGL187C, mitochondria-located protein genes, 2 h culture with chemical): 0.3
The level of expressed mRNA in the presence of chemical substance/ (in its absence), gene YGL205W (yeast gene YGL205W, ratio of DNA chip fluorescence intensity to that without chemical substance): 2.0
The level of expressed mRNA in the presence of chemical substance/The level of expressed mRNA in the absence of chemical substance (yeast gene YGL229C): 0.2
The level of expressed mRNA in the presence of chemical substance/ in its absence, gene YGR062C (yeast gene YGR062C, energy system protein genes, 2 h culture with the chemical, ratio to control without chemical): 0.5
The level of expressed mRNA in the presence of chemical substance/ (ratio to absence), gene YGR062C (yeast gene YGR062C, mitochondria-located protein genes, 2 h culture with chemical): 0.5
The level of expressed mRNA in the presence of chemical substance/ (in its absence), gene YGR096W (yeast gene YGR096W, ratio of DNA chip fluorescence intensity to that without chemical substance): 0.9
The level of expressed mRNA in the presence of chemical substance/The level of expressed mRNA in the absence of chemical substance (yeast gene YGR136W): 2.6
The level of expressed mRNA in the presence of chemical substance/The level of expressed mRNA in the absence of chemical substance (yeast gene YGR189C): 9.3
The level of expressed mRNA in the presence of chemical substance/The level of expressed mRNA in the absence of chemical substance (yeast gene YGR213C): 6.5
The level of expressed mRNA in the presence of chemical substance/The level of expressed mRNA in the absence of chemical substance (yeast gene YGR257C): 1.3
The level of expressed mRNA in the presence of chemical substance/ (in its absence), gene YGR287C (yeast gene YGR287C, ratio of DNA chip fluorescence intensity to that without chemical substance): 2.3
The level of expressed mRNA in the presence of chemical substance/ (in its absence), gene YGR288W (yeast gene YGR288W, ratio of DNA chip fluorescence intensity to that without chemical substance): 0.8
The level of expressed mRNA in the presence of chemical substance/ (ratio to absence of chemical substance) (yeast gene YHL028W): 0.6
The level of expressed mRNA in the presence of chemical substance/ (ratio to absence of chemical substance) (yeast gene YHL046C): 1.0
The level of expressed mRNA in the presence of chemical substance/The level of expressed mRNA in the absence of chemical substance (yeast gene YHR004C): 1.2
The level of expressed mRNA in the presence of chemical substance/The level of expressed mRNA in the absence of chemical substance (yeast gene YHR071W): 3.0
The level of expressed mRNA in the presence of chemical substance/The level of expressed mRNA in the absence of chemical substance (yeast gene YHR139C): 1.9
The level of expressed mRNA in the presence of chemical substance/The level of expressed mRNA in the absence of chemical substance (yeast gene YHR142W): 4.8
The level of expressed mRNA in the presence of chemical substance/ (in its absence), gene YHR210C (yeast gene YHR210C, ratio of DNA chip fluorescence intensity to that without chemical substance): 0.5
The level of expressed mRNA in the presence of chemical substance/ (in its absence), gene YIL006W (yeast gene YIL006W, ratio of DNA chip fluorescence intensity to that without chemical substance): 1.5
The level of expressed mRNA in the presence of chemical substance/ (ratio to absence of chemical substance) (yeast gene YIL011W): 0.9
The level of expressed mRNA in the presence of chemical substance/The level of expressed mRNA in the absence of chemical substance (yeast gene YIL123W): 4.8
The level of expressed mRNA in the presence of chemical substance/The level of expressed mRNA in the absence of chemical substance (yeast gene YIL140W): 3.3
The level of expressed mRNA in the presence of chemical substance/ (in its absence), gene YJL070C (yeast gene YJL070C, ratio of DNA chip fluorescence intensity to that without chemical substance): 3.5
